Data: the NIST ThermoML archive (doi:10.1016/j.jct.2017.12.023)

Assay: xn = mol fraction of the nth substance listed
Conditions: 100 kPa, Liquid; for viscosity: Concentric cylinders viscometry; for mass density: Vibrating tube method

CCOS(=O)(=O)[O-].CCn1cc[n+](C)c1 [1-ethyl-3-methylimidazolium ethyl sulfate] + CN1CCCC1=O
Conditions	mass density [kg/m3]	viscosity [mPa·s]
288.15 K, x1 = 0.1009	1079.2	3.992
288.15 K, x1 = 0.2012	1111.89	7.313
288.15 K, x1 = 0.3021	1138.72	12.42
288.15 K, x1 = 0.4012	1160.76	19.71
288.15 K, x1 = 0.4973	1178.79	29.14
288.15 K, x1 = 0.596	1194.97	42.09
288.15 K, x1 = 0.6998	1209.56	59.32
288.15 K, x1 = 0.7961	1221.74	79
288.15 K, x1 = 0.8821	1231.55	104.25
288.15 K, x1 = 1	1243.07	155.55
293.15 K, x1 = 0.1009	1074.95	3.554
293.15 K, x1 = 0.2012	1107.79	6.338
293.15 K, x1 = 0.3021	1134.75	10.51
293.15 K, x1 = 0.4012	1156.89	16.36
293.15 K, x1 = 0.4973	1175.02	23.79
293.15 K, x1 = 0.596	1191.28	33.7
293.15 K, x1 = 0.6998	1205.95	46.73
293.15 K, x1 = 0.7961	1218.2	61.57
293.15 K, x1 = 0.8821	1228.07	80.25
293.15 K, x1 = 1	1239.66	117.88
298.15 K, x1 = 0.1009	1070.72	3.21
298.15 K, x1 = 0.2012	1103.71	5.637
298.15 K, x1 = 0.3021	1130.79	9.181
298.15 K, x1 = 0.4012	1153.04	14.03
298.15 K, x1 = 0.4973	1171.26	20.08
298.15 K, x1 = 0.596	1187.6	27.95
298.15 K, x1 = 0.6998	1202.35	38.08
298.15 K, x1 = 0.7961	1214.66	49.4
298.15 K, x1 = 0.8821	1224.59	63.39
298.15 K, x1 = 1	1236.27	91.26
303.15 K, x1 = 0.1009	1066.49	2.908
303.15 K, x1 = 0.2012	1099.65	5.01
303.15 K, x1 = 0.3021	1126.85	8.026
303.15 K, x1 = 0.4012	1149.22	12.06
303.15 K, x1 = 0.4973	1167.52	17
303.15 K, x1 = 0.596	1183.95	23.38
303.15 K, x1 = 0.6998	1198.77	31.46
303.15 K, x1 = 0.7961	1211.15	40.33
303.15 K, x1 = 0.8821	1221.13	51.1
303.15 K, x1 = 1	1232.87	72.1
308.15 K, x1 = 0.1009	1062.28	2.649
308.15 K, x1 = 0.2012	1095.59	4.488
308.15 K, x1 = 0.3021	1122.93	7.071
308.15 K, x1 = 0.4012	1145.41	10.47
308.15 K, x1 = 0.4973	1163.8	14.56
308.15 K, x1 = 0.596	1180.31	19.81
308.15 K, x1 = 0.6998	1195.21	26.22
308.15 K, x1 = 0.7961	1207.65	33.3
308.15 K, x1 = 0.8821	1217.69	41.58
308.15 K, x1 = 1	1229.49	57.98
313.15 K, x1 = 0.1009	1058.09	2.432
313.15 K, x1 = 0.2012	1091.55	4.013
313.15 K, x1 = 0.3021	1119.03	6.231
313.15 K, x1 = 0.4012	1141.61	9.114
313.15 K, x1 = 0.4973	1160.1	12.5
313.15 K, x1 = 0.596	1176.69	16.76
313.15 K, x1 = 0.6998	1191.67	22.04
313.15 K, x1 = 0.7961	1204.17	27.72
313.15 K, x1 = 0.8821	1214.27	34.42
313.15 K, x1 = 1	1226.13	47.26
318.15 K, x1 = 0.1009	1053.91	2.231
318.15 K, x1 = 0.2012	1087.53	3.668
318.15 K, x1 = 0.3021	1115.14	5.615
318.15 K, x1 = 0.4012	1137.84	8.113
318.15 K, x1 = 0.4973	1156.42	11
318.15 K, x1 = 0.596	1173.09	14.57
318.15 K, x1 = 0.6998	1188.15	18.93
318.15 K, x1 = 0.7961	1200.71	23.58
318.15 K, x1 = 0.8821	1210.86	29
318.15 K, x1 = 1	1222.79	39.25
323.15 K, x1 = 0.1009	1049.74	2.061
323.15 K, x1 = 0.2012	1083.52	3.344
323.15 K, x1 = 0.3021	1111.25	5.053
323.15 K, x1 = 0.4012	1134.08	7.216
323.15 K, x1 = 0.4973	1152.75	9.678
323.15 K, x1 = 0.596	1169.51	12.7
323.15 K, x1 = 0.6998	1184.64	16.34
323.15 K, x1 = 0.7961	1197.26	20.2
323.15 K, x1 = 0.8821	1207.47	24.63
323.15 K, x1 = 1	1219.46	32.94
328.15 K, x1 = 0.1009	1045.59	1.912
328.15 K, x1 = 0.2012	1079.52	3.064
328.15 K, x1 = 0.3021	1107.38	4.575
328.15 K, x1 = 0.4012	1130.34	6.458
328.15 K, x1 = 0.4973	1149.1	8.585
328.15 K, x1 = 0.596	1165.95	11.16
328.15 K, x1 = 0.6998	1181.15	14.23
328.15 K, x1 = 0.7961	1193.83	17.46
328.15 K, x1 = 0.8821	1204.1	21.14
328.15 K, x1 = 1	1216.16	27.96
333.15 K, x1 = 0.1009	1041.42	1.782
333.15 K, x1 = 0.2012	1075.53	2.804
333.15 K, x1 = 0.3021	1103.53	4.154
333.15 K, x1 = 0.4012	1126.61	5.808
333.15 K, x1 = 0.4973	1145.47	7.681
333.15 K, x1 = 0.596	1162.4	9.893
333.15 K, x1 = 0.6998	1177.67	12.51
333.15 K, x1 = 0.7961	1190.42	15.27
333.15 K, x1 = 0.8821	1200.75	18.36
333.15 K, x1 = 1	1212.86	24.09

CCOS(=O)(=O)[O-].CCn1cc[n+](C)c1 [1-ethyl-3-methylimidazolium ethyl sulfate] + CCCCCCO
Conditions	mass density [kg/m3]	viscosity [mPa·s]
288.15 K, x1 = 0.1016	883.62	9.353
288.15 K, x1 = 0.2016	938.59	13.3
288.15 K, x1 = 0.3005	988.2	18.78
288.15 K, x1 = 0.3989	1033.38	26.42
288.15 K, x1 = 0.4975	1075.01	36.71
288.15 K, x1 = 0.5956	1113.22	50.2
288.15 K, x1 = 0.6647	1138.48	61.57
288.15 K, x1 = 0.7947	1182.52	90.12
288.15 K, x1 = 0.897	1214.13	117.32
288.15 K, x1 = 1	1243.07	155.55
293.15 K, x1 = 0.1016	880.04	7.885
293.15 K, x1 = 0.2016	935.01	11.15
293.15 K, x1 = 0.3005	984.62	15.65
293.15 K, x1 = 0.3989	1029.83	21.79
293.15 K, x1 = 0.4975	1071.48	29.93
293.15 K, x1 = 0.5956	1109.72	40.24
293.15 K, x1 = 0.6647	1135	48.86
293.15 K, x1 = 0.7947	1179.07	69.76
293.15 K, x1 = 0.897	1210.7	90.21
293.15 K, x1 = 1	1239.66	117.88
298.15 K, x1 = 0.1016	876.47	6.825
298.15 K, x1 = 0.2016	931.44	9.64
298.15 K, x1 = 0.3005	981.06	13.44
298.15 K, x1 = 0.3989	1026.28	18.54
298.15 K, x1 = 0.4975	1067.96	25.04
298.15 K, x1 = 0.5956	1106.23	33.31
298.15 K, x1 = 0.6647	1131.53	40.06
298.15 K, x1 = 0.7947	1175.63	55.99
298.15 K, x1 = 0.897	1207.28	71.04
298.15 K, x1 = 1	1236.27	91.26
303.15 K, x1 = 0.1016	872.88	5.918
303.15 K, x1 = 0.2016	927.87	8.313
303.15 K, x1 = 0.3005	977.51	11.56
303.15 K, x1 = 0.3989	1022.76	15.8
303.15 K, x1 = 0.4975	1064.47	21.17
303.15 K, x1 = 0.5956	1102.76	27.85
303.15 K, x1 = 0.6647	1128.08	33.14
303.15 K, x1 = 0.7947	1172.21	45.6
303.15 K, x1 = 0.897	1203.87	57.05
303.15 K, x1 = 1	1232.87	72.1
308.15 K, x1 = 0.1016	869.3	5.153
308.15 K, x1 = 0.2016	924.31	7.242
308.15 K, x1 = 0.3005	973.98	10.01
308.15 K, x1 = 0.3989	1019.25	13.6
308.15 K, x1 = 0.4975	1060.99	18.02
308.15 K, x1 = 0.5956	1099.3	23.46
308.15 K, x1 = 0.6647	1124.65	27.77
308.15 K, x1 = 0.7947	1168.81	37.67
308.15 K, x1 = 0.897	1200.48	46.51
308.15 K, x1 = 1	1229.49	57.98
313.15 K, x1 = 0.1016	865.72	4.475
313.15 K, x1 = 0.2016	920.76	6.296
313.15 K, x1 = 0.3005	970.44	8.67
313.15 K, x1 = 0.3989	1015.75	11.7
313.15 K, x1 = 0.4975	1057.52	15.4
313.15 K, x1 = 0.5956	1095.87	19.84
313.15 K, x1 = 0.6647	1121.24	23.34
313.15 K, x1 = 0.7947	1165.42	31.23
313.15 K, x1 = 0.897	1197.11	38.33
313.15 K, x1 = 1	1226.13	47.26
318.15 K, x1 = 0.1016	862.11	3.975
318.15 K, x1 = 0.2016	917.2	5.593
318.15 K, x1 = 0.3005	966.93	7.683
318.15 K, x1 = 0.3989	1012.26	10.3
318.15 K, x1 = 0.4975	1054.07	13.44
318.15 K, x1 = 0.5956	1092.45	17.17
318.15 K, x1 = 0.6647	1117.84	20.06
318.15 K, x1 = 0.7947	1162.05	26.51
318.15 K, x1 = 0.897	1193.76	32.18
318.15 K, x1 = 1	1222.79	39.25
323.15 K, x1 = 0.1016	858.5	3.566
323.15 K, x1 = 0.2016	913.65	4.959
323.15 K, x1 = 0.3005	963.42	6.841
323.15 K, x1 = 0.3989	1008.79	9.127
323.15 K, x1 = 0.4975	1050.64	11.85
323.15 K, x1 = 0.5956	1089.05	14.98
323.15 K, x1 = 0.6647	1114.46	17.41
323.15 K, x1 = 0.7947	1158.7	22.64
323.15 K, x1 = 0.897	1190.42	27.41
323.15 K, x1 = 1	1219.46	32.94
